Experimental data: patent US5994334A, “Androgen synthesis inhibitors” (priority 1997, dated 1999)
Like-named read-outs stand apart in the source and are kept apart here.

Tests used:
[1] = molecular target: 17α-hydroxylase/C17,20-lyase; conditions: read-out: Ki (literature); cited from earlier work
[2] = tested on: LNCaP human prostatic cancer cell line; test: Androgen-dependent growth of LNCaP cells; conditions: for reversal of testosterone-stimulated LNCaP growth (in words): inhibitor 0.3-5 μM, 9 days; for stimulation of LNCaP cell proliferation (in words): hydroxyflutamide 0.3-1 μM
Protocol: The ability of various inhibitors to reverse the stimulatory effect of testosterone on the growth of the LNCaP human prostatic cancer cell line was tested by comparing cell number in wells treated for 9 days with either drug vehicle only (control), 0.1 nM testosterone only, or 0.1 nM testosterone with inhibitor at 0.3, 1, 2.5, or 5 μM.

[3] = molecular target: T1, Human Prostatic 5α-Reductase (Homo sapiens, UniProt P31213); test: Inhibition of human prostatic 5α-reductase (prostatic microsomes, [3H]testosterone); conditions: for inhibition at 0.01 µM: read-out: % Inhibition of 5α-reductase, [I] 10 nM; for inhibition at 0.1 µM: read-out: % Inhibition of 5α-reductase, [I] 100 nM
T1 sequence (P31213 1-254): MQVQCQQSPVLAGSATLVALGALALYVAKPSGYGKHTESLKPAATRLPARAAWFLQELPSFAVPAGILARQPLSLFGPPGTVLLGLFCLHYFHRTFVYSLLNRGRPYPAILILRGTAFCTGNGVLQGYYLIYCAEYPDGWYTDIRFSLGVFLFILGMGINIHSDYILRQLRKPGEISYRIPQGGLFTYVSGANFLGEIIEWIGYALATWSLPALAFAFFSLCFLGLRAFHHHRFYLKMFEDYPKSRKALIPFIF
Protocol: The 5α-reductase assay is performed by incubating human prostatic microsomes (approx. 0.6 mg protein in 0.5 ml phosphate buffer) with [7-^3 H]testosterone (10 mM. 6×10^5 dpm) with a NADPH generating system (NADP 0.65 mM; glucose-6-phosphate 7.1 mM; glucose-6-phosphate dehydrogenase 2.5 IU in 100 μl phosphate buffer) and candidate inhibitors at concentrations of 10 nM and 100 nM under oxygen for 30 min at 37° C. […] The steroids are extracted with ether and separated by chromatography on TLC (chloroform:ether 80:20). […] The steroids are scraped from the plate and radioactivity measured.

[4] = tested on: human prostatic tissue (BPH or prostate cancer); test: Prostate tissue in histoculture, DNA synthesis ([3H]-thymidine uptake); conditions: for inhibition of testosterone-stimulated DNA synthesis (in words), 0.3 μM: inhibitor 0.3 μM; for reversal of testosterone-stimulated DNA synthesis (in words), 1 μM: inhibitor 1 μM, testosterone 1 μM, FIG. 1
Protocol: We recently developed a histoculture method to evaluate the growth inhibiting properties of the compounds on human prostatic tissue. […] The tissue samples were then incubated for 3 days in fresh medium/treatment containing 2 μCi/ml [^3 H]-thymidine. Tissue was then digested and DNA extracted. For each sample, [^3 H]-thymidine uptake was normalized to DNA content. […] This finding is consistent with the compound acting as an antiandrogen. None of the compounds produced an independent effect on DNA synthesis in the absence of added androgens.

[5] = molecular target: T2, Human Testicular C17,20-lyase (Homo sapiens, UniProt P05093); test: Inhibition of human testicular C17,20-lyase (pregnenolone substrate, testicular microsomes); type: biochemical
T2 construct: incubating human testicular microsomes; from tissue; host or cells: human testis, microsomes
T2 sequence (P05093 1-508): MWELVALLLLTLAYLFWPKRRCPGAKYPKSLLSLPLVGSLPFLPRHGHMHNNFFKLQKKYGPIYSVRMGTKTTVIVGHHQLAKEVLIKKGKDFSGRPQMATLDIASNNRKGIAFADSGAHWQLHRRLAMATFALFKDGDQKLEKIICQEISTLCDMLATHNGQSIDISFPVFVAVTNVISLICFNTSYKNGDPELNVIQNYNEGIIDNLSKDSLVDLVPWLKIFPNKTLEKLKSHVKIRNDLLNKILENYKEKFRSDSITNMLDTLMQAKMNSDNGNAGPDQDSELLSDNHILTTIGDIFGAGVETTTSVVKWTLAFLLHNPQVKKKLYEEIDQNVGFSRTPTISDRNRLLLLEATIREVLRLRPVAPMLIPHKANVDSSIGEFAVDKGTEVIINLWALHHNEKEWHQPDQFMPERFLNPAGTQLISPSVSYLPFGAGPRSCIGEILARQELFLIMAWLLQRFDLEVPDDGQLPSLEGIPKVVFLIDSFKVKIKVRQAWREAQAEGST
Protocol: (§1) The conversion of radiolabeled pregnenolone to 17α-hydroxypregnenolone and DHEA by 17α-hydroxylase/C17,20 -lyase was measured by incubating human testicular microsomes with different concentration of test compounds. Reverse phase HPLC was used to separate and accurately quantify the amount of substrate and metabolites. The 17α-hydroxylase and C17,20 -lyase activities were calculated separately. The activity of 17α-hydroxylase was calculated from the conversion of pregnenolone to 17α-hydroxypregnenolone and DHEA and the activity of C17,20 -lyase was based on the conversion of pregnenolone to DHEA. Although 17α-hydroxypregnenolone is the substrate converted to DHEA by C17,20 -lyase, it has been reported that this 17α-hydroxy intermediate is not released from the enzyme binding site during conversion (Nakajin et al., 1981a,b). Also, there are species differences in substrate requirements. Pregnenolone is the natural substrate rather than progesterone for human testicular 17α-hydroxylase and C17,20 -lyase. Therefore, pregnenolone was used as substrate for measuring the activity of this enzyme complex.

[6] = molecular target: T3, Human Testicular 17α-Hydroxylase (Homo sapiens, UniProt P05093); test: Inhibition of human testicular 17α-hydroxylase (pregnenolone substrate, testicular microsomes); type: biochemical
T3 construct: incubating human testicular microsomes; from tissue; host or cells: human testis, microsomes
T3 sequence (P05093 1-508): T2 sequence (P05093 1-508)
Protocol: as §1

[7] = molecular target: T4, human 17α-hydroxylase/C17,20-lyase (Homo sapiens, UniProt P05093); test: Inhibition of human testicular 17α-hydroxylase/C17,20-lyase (enzyme complex as a whole); type: biochemical; conditions: for inhibition of 17α-hydroxylase/C17,20-lyase (in words): NI = no inhibition
T4 construct: incubating human testicular microsomes; from tissue; host or cells: human testis, microsomes
T4 sequence (P05093 1-508): T2 sequence (P05093 1-508)
Protocol: as §1

[8] = tested on: LNCaP human prostatic tumors; test: Human prostatic cancer (LNCaP) xenograft in male nude mice; type: in vivo, human (LNCaP) tumors in BALB/c male athymic mice; conditions: five weeks
Protocol: We have reported that inoculation of MCF-7 breast cancer cells in Matrigel increases mammary tumor formation in nude mice (Yue et al., 1994). The same procedure was therefore utilized to develop tumors from human prostatic cancer cells (LNCAP) in male nude mice. BALB/c male athymic mice, 4-6 weeks old, were inoculated sc with LNCaP cells suspended in Matrigel (10 mg/ml). Four sites per mouse were injected with 1.8×10^6 cells in 0.1 ml Matrigel. Treatment began when the tumor reached about 100 mm^3 in volume. Tumors were measured before the treatment began and once a week during treatment. Tumor volume was calculated by the formula 4/3πr1^2 r2 (r1 <r2).At the end of treatment, the mice were sacrificed and individual tumors were weighed. The latency of tumor development was 30-40 days and overall tumorigenicity was 82%.
In a further experiment, two mice were treated with I-16 (1 mg/mouse/day, s.c.) beginning 45 days after cell inoculation. Two mice received vehicle as controls. […] The mean tumor weight was 198.78±72 mg in I-16 treated mice compared to 386.3±147.2 mg in the control group. In other experiments, I-47 and I-49 were effective in controlling tumor growth. The total tumor volume of the control mice increased to 884.0% of the initial volume.

[9] = tested on: adrenal 17α-hydroxylase/C17,20-lyase; test: Inhibition of adrenal 17α-hydroxylase/C17,20-lyase; type: biochemical; conditions: guinea pig adrenal
[10] = Table 1, NI = no inhibition, CI = complete inhibition, read-out: IC50 C17,20 lyase
[11] = second figure of pair, read-out: IC50 C17,20-lyase
[12] = Table 1, NI = no inhibition, read-out: IC50 17α-OHase
[13] = Table 3, first figure of 17α-hydroxylase/lyase pair, read-out: IC50 17α-hydroxylase
[14] = first figure of pair, read-out: IC50 17α-hydroxylase

Compound | reversal of DHT-stimulated LNCaP growth (in words) ([2]; 0.03 nM DHT) | IC50 ([3]; IC50 5α-reductase, Table 2) [nM] | inhibition at 0.01 µM [3] [%] | inhibition at 0.1 µM [3] [%] | inhibition of testosterone-stimulated DNA synthesis (in words), 0.3 μM [4] | reversal of testosterone-stimulated DNA synthesis (in words), 1 μM [4] | IC50 ([3]; IC50 5α-reductase) [nM] | inhibition of 17α-hydroxylase/C17,20-lyase (in words) [7] | IC50 [5, 10] [nM] | IC50 [6, 12] [nM] | other results
C[C@]12CC[C@H]3[C@@H](CC=C4C[C@@H](O)CC[C@@]43C)[C@@H]1CC[C@@H]2NC1CC1 [17β-(cyclopropylamino)androst-5ene-3-ol] | – | – | – | – | – | – | – | – | – | – | Ki [1]: 90 nM
CCN(CC)C(=O)[C@H]1CC[C@H]2[C@@H]3CC[C@H]4N(C)C(=O)CC[C@]4(C)[C@H]3CC[C@]12C [Compound 4MA, reference compound] | dose-dependent reversal | 10 | 71.9 | 92 | highly effective | almost complete reversal | – | – | – | – | reversal of testosterone-stimulated LNCaP growth at 5 μM (in words) ([2]; 0.1 nM testosterone, inhibitor 5 μM): almost completely reversed; reversal of testosterone-stimulated LNCaP growth (in words) ([2]; 0.1 nM testosterone): dose-dependent reversal; IC50 ([2]; Homo sapiens, LNCaP, 216 h, read-out: concentration reducing the stimulatory effect of testosterone by 50%): ≤ 1000 nM
C[C@H](O)[C@H]1CC[C@H]2[C@@H]3CCC4=CC(=O)CC[C@]4(C)[C@H]3CC[C@]12C [Compound I-33] | – | 13 | 28.5 | 87.6 | highly effective | almost complete reversal | 13 | – | – | – | IC50 ([5]; IC50 C17,20 lyase): 1430 nM; stimulation of LNCaP cell proliferation (in words) ([2]; 0.1 nM testosterone): stimulated cell proliferation; IC50 ([6]; IC50 17α-OHase): 2840 nM
C[C@@H](O)[C@H]1CC[C@H]2[C@@H]3CCC4=CC(=O)CC[C@]4(C)[C@H]3CC[C@]12C [Compound I-34] | stimulation of growth above the level produced by DHT | 90 | 16.1 | 64.5 | partially effective | almost complete reversal | 90 | potent inhibition | – | – | stimulation of LNCaP cell proliferation (in words) ([2]; 0.1 nM testosterone): stimulated cell proliferation
C[C@]12CC[C@H]3[C@@H](CCC4=CC(=O)CC[C@@]43C)[C@@H]1CC[C@@H]2c1c[nH]cn1 [Compound I-41, 17β-(4'-imidazolyl)-androst-4-en-3-one] | – | – | – | – | – | without effect | 122 | – | 5 | 59 | IC50 ([5]; Table 3, second figure of pair, CI = complete inhibition, read-out: IC50 lyase): 5.61 nM; IC50 [5, 11]: 5 nM; IC50 ([3]; IC50 5α-reductase, Table 3, NI = no inhibition): 122 nM; IC50 [6, 13]: 59.4 nM; IC50 [6, 14]: 59 nM
CC(=NO)[C@H]1CC[C@H]2[C@@H]3CCC4=CC(=NO)CC[C@]4(C)[C@H]3CC[C@]12C [Compound I-43] | – | – | – | – | – | without effect | – | decreased activity | 70 | 90 | inhibition of 5α-reductase (in words) ([3]; NI = no inhibition): decreased activity; IC50 ([3]; read-out: IC50 5α-reductase, Table 2): 1270 nM
C[C@]12CC[C@H](O)CC1=CC[C@@H]1[C@@H]2CC[C@]2(C)C(c3c[nH]cn3)=CC[C@@H]12 [Compound I-49, 17β-(4'-imidazolyl)-androsta-5,16-dien-3β-ol] | dose-dependent reversal | – | – | 26.3 | – | partially effective | – | potent inhibitors | 9 | 8 | total tumor volume (% of initial volume), 5 weeks ([8]; 4 mice per group, control 884.0%, FIG. 2): 315.3%; mean tumor weight, 5-week experiment ([8]; control 1310.5±1125.9 mg, I-49 p<0.05 vs control): 255.9 ± 176.9 mg; effect on adrenal enzyme (in words) [9]: very little effect; fold increase of inhibition by 16,17 double bond ([7]; vs I-47): 2 fold; times more potent than ketoconazole ([7]; vs ketoconazole): 10-50 times; IC50 [5, 11]: 4 nM; reversal of DHT-stimulated LNCaP growth at 5 μM (in words) ([2]; 0.03 nM DHT, inhibitor 5 μM): nearly complete reversal; reversal of testosterone-stimulated LNCaP growth (in words) ([2]; 0.1 nM testosterone): dose-dependent reversal; IC50 [6, 13]: 8.82 nM; IC50 [6, 14]: 4 nM
C[C@]12CC[C@H]3[C@@H](CCC4=CC(=O)CC[C@@]43C)[C@@H]1CC[C@@H]2O [Testosterone, reference compound] | – | – | – | – | – | – | – | – | – | – | fold induction at 0.0001 µM ([2]; Homo sapiens, LNCaP, 216 h, read-out: stimulation of LNCaP growth by testosterone): 2; fold induction at 1 µM ([4]; Homo sapiens, read-out: stimulation of DNA synthesis by testosterone): ~2
